The IC50 is the concentration needed to halve the response being measured. A high value points to weaker potency.

Experimental findings from patent US20260042755A1, “GPR6 INVERSE AGONISTS” (MapLight Therapeutics, Inc., priority 2022, published 2026) are described below.

The target in one assay is T1, GPR6 (Homo sapiens, UniProt P46095).
T1 construct: expressed in transfected cells; host or cells: CHO cells
Put plainly: GPR6 antagonist functional cAMP assay (LANCE Ultra cAMP TR-FRET, CHO cells stably expressing GPR6). The assay is classed as cell-based. The method in brief:
(§1)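 We measure cAMP by TR-FRET (665 nm) in cells held in glucose-containing Krebs-Ringer buffer with BSA and a PDE inhibitor, after a 45 min, 37 °C compound incubation. IC50s derive from a four-parameter logistic fit.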
(In general: cAMP levels reflect the balance of adenylyl cyclase and phosphodiesterase activity.)

The target in another assay is T2, GPR3 (Homo sapiens, UniProt P46089).
T2 construct: expressed in transfected cells; host or cells: CHO cells
Put plainly: GPR3 antagonist functional cAMP assay (LANCE Ultra cAMP TR-FRET, CHO cells stably expressing GPR3). The assay is classed as cell-based. The gist of the method:
as §1

Setting [1] is: CHO cells stably expressing GPR6, cAMP assay (Example 24).
The mark [2] stands for this setting: CHO cells stably expressing GPR3, cAMP assay (Example 24).
[3] abbreviates: CHO cells stably expressing GPR6, cAMP assay.
Setting [4] is: CHO cells stably expressing GPR3, cAMP assay.
Setting [5] is: procedure as described in Example 24.

T2 sequence (P46089 whole entry, species assumed): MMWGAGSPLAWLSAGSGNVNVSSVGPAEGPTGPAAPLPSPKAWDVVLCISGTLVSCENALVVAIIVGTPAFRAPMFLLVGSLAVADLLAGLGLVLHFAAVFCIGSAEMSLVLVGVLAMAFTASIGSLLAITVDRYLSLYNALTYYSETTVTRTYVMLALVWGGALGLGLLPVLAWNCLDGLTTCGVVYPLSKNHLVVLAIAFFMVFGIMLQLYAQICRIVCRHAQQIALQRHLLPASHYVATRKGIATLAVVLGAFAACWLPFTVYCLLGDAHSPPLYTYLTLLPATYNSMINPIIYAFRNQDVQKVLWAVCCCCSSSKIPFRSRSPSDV
T1 sequence (P46095 whole entry): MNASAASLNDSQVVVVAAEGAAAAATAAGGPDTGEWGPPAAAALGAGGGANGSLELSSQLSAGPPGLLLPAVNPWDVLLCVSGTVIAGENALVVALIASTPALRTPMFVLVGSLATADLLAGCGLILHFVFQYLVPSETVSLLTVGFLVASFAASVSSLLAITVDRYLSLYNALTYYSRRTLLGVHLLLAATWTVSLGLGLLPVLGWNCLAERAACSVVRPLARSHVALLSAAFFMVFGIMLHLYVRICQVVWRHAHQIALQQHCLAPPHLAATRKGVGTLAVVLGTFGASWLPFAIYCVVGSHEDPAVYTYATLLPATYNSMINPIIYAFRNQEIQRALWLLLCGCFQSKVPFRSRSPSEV

Regarding `C=CC(=O)N1CCc2nc(N3CCC(Oc4ccc(F)cc4F)CC3)c(-c3cnn(C4CCCCO4)c3)nc2C1` (centres unmarked) [Compound 185, 1-{2-[4-(2,4-difluorophenoxy)piperidin-1-yl]-3-[1-(oxan-2-yl)-1H-pyrazol-4-yl]-5H,6H,7H,8H-pyrido[3,4-b]pyrazin-6-yl}prop-2-en-1-one], the IC50 is 0.1 to 1 µM against GPR6 (setting [1]) and 1 to 30 µM against GPR3 (setting [2]).

As for `O=C(CN1CCOCC1)N1CCc2nc(N3CCC(Oc4ccc(F)cc4F)CC3)c(-c3cn[nH]c3)nc2C1` [Compound 149, 1-{2-[4-(2,4-difluorophenoxy)piperidin-1-yl]-3-(1H-pyrazol-4-yl)-5H,6H,7H,8H-pyrido[3,4-b]pyrazin-6-yl}-2-(morpholin-4-yl)ethan-1-one], the figures for the IC50 at GPR6 (setting [1]) and against GPR3 (setting [2]) were 0.1 to 1 µM and 1 to 30 µM, respectively.

`CC(=O)N1CCc2nc(N3CCC(Oc4ccc(F)cc4F)CC3)c(-c3cncc(Cl)n3)nc2C1` [Compound 243]: the IC50 against GPR6 (setting [1]) and against GPR3 (setting [2]) was 1 to 30 µM each time.

For `CC(=O)Nc1cc2nc(N3CCN(Cc4ccc(F)cc4F)CC3)c(-c3cnn(C)c3)nc2cn1` [Compound 297, N-(2-{4-[(2,4-difluorophenyl)methyl]piperazin-1-yl}-3-(1-methyl-1H-pyrazol-4-yl)pyrido[3,4-b]pyrazin-7-yl)acetamide], the IC50 on GPR6 (procedure of Example 24) and against GPR3 (procedure of Example 24) was 1 to 30 µM in each case.

Regarding `COc1cccc(-c2nc3c(nc2N2CCN(Cc4ccc(F)cc4Cl)CC2)CCN(C(C)=O)C3)n1` [Compound 205, 1-(2-{4-[(2-chloro-4-fluorophenyl)methyl]piperazin-1-yl}-3-(6-methoxypyridin-2-yl)-5H,6H,7H,8H-pyrido[3,4-b]pyrazin-6-yl)ethan-1-one], the values for the concentration for half-maximal inhibition (IC50) against GPR6 (setting [1]) and against GPR3 (setting [2]) were 0.1 to 1 µM and 1 to 30 µM, respectively.

Take `COc1ncc(-c2nc3c(nc2N2CCC(Oc4ccc(F)cc4F)CC2)CCN(C(C)=O)C3)cn1` [Compound 190, 1-{2-[4-(2,4-difluorophenoxy)piperidin-1-yl]-3-(2-methoxypyrimidin-5-yl)-5H,6H,7H,8H-pyrido[3,4-b]pyrazin-6-yl}ethan-1-one]: the values for the IC50 on GPR6 (setting [1]) and against GPR3 (setting [2]) were 0.1 to 1 µM and 1 to 30 µM, respectively.

As to `CC(=O)N1CCc2nc(N3CCC(Oc4ccc(F)cc4C#N)CC3)c(-c3cnn(C)c3)nc2C1` [Compound 497, 2-{1-[6-acetyl-3-(1-methyl-4-pyrazolyl)-5,6,7,8-tetrahydro-1,4,6-triaza-2-naphthyl]-4-piperidyloxy}-5-fluorobenzonitrile], the IC50 against GPR6 (setting [3]) lay in the range of 0.1 to 1 µM; at GPR3 (setting [4]), 1 to 30 µM.

For `CC(=O)N1CCc2nc(N3CCN(Cc4ccc(F)cc4F)C[C@H]3C)c(-c3cnn(C)c3)nc2C1` (single isomer, unassigned) [Compound 231], the IC50 against GPR6 (setting [1]) and against GPR3 (setting [2]) was 1 to 30 µM each time.

With `CC(C)(O)C(C)(O)c1cc2nc(-c3cnn(C4CC4)c3)c(N3CCN(Cc4ccc(F)cc4F)CC3)nc2cn1` (centres unmarked) [Compound 653, 2-[2-(1-cyclopropyl-4-pyrazolyl)-3-{4-[(2,4-difluorophenyl)methyl]-1-piperazinyl}-1,4,6-triaza-7-naphthyl]-3-methyl-2,3-butanediol], the IC50 fell in the range of 0.1 to 1 µM at GPR6 (procedure of Example 24) and 1 to 30 µM against GPR3 (procedure of Example 24).

Take `CC(=O)N1CCc2nc(N3CCC(C(=O)N(C)c4ccc(F)cc4F)C3)c(-c3cnn(C)c3)nc2C1` (centres unmarked) [Compound 392, 1-[6-acetyl-3-(1-methyl-1H-pyrazol-4-yl)-5H,6H,7H,8H-pyrido[3,4-b]pyrazin-2-yl]-N-(2,4-difluorophenyl)-N-methylpyrrolidine-3-carboxamide]: the IC50 is at least 30 µM at GPR6 (setting [1]) and 1 to 30 µM against GPR3 (setting [2]).

For the compound `COc1ccc(OC2CCN(c3nc4c(nc3-c3cnn(C)c3)CN(C(C)=O)CC4)CC2)cn1` [Compound 498, 1-{2-[4-(6-methoxy-3-pyridyloxy)-1-piperidyl]-3-(1-methyl-4-pyrazolyl)-5,6,7,8-tetrahydro-1,4,6-triaza-6-naphthyl}-1-ethanone], the IC50 against GPR6 (setting [3]) and on GPR3 (setting [4]) was 1 to 30 µM in each case.

Take `CC(C)(O)[C@@H](O)c1cc2nc(N3CCN(Cc4ccc(F)cc4F)CC3)c(-c3cnn(C(F)F)c3)nc2cn1` (single isomer, unassigned) [Compound 397]: the IC50 was below 0.1 µM at GPR6 (setting [1]) and 1 to 30 µM at GPR3 (setting [2]).

`Cn1cc(-c2nc3cnc(Cl)cc3nc2N2CCN(Cc3ccc(F)cc3F)CC2)cn1` [Compound 193, 1-[7-chloro-3-(1-methyl-1H-pyrazol-4-yl)pyrido[3,4-b]pyrazin-2-yl]-4-[(2,4-difluorophenyl)methyl]piperazine]: the IC50 on GPR6 (setting [1]) and against GPR3 (setting [2]) was 1 to 30 µM throughout.

In the case of `C=CC(=O)N1CCc2nc(N3CCC(Oc4ccc(F)cc4F)CC3)c(-c3cn[nH]c3)nc2C1` [Compound 203, 1-{2-[4-(2,4-difluorophenoxy)piperidin-1-yl]-3-(1H-pyrazol-4-yl)-5H,6H,7H,8H-pyrido[3,4-b]pyrazin-6-yl}prop-2-en-1-one], the IC50 was below 0.1 µM on GPR6 (setting [1]) and 1 to 30 µM against GPR3 (setting [2]).

With `COc1ccnc(-c2nc3c(nc2N2CCC(Oc4ccc(F)cc4F)CC2)CCN(C(C)=O)C3)c1` [Compound 7, 1-(2-(4-(2,4-difluorophenoxy)piperidin-1-yl)-3-(4-methoxypyridin-2-yl)-7,8-dihydropyrido[3,4-b]pyrazin-6(5H)-yl)ethan-1-one], the results for the IC50 at GPR6 (setting [5]) and at GPR3 (setting [5]) were 1 to 30 µM and 0.1 to 1 µM, respectively.

With `Cn1cc(-c2nc3cnc(C(=O)O)cc3nc2N2CCC(Oc3ccc(F)cc3F)CC2)cn1` [Compound 314, 2-[4-(2,4-difluorophenoxy)piperidin-1-yl]-3-(1-methyl-1H-pyrazol-4-yl)pyrido[3,4-b]pyrazine-7-carboxylic acid], the concentration for half-maximal inhibition (IC50) on GPR6 (procedure of Example 24) and at GPR3 (procedure of Example 24) was 1 to 30 µM throughout.

On to `CC(=O)N1CCc2nc(N3CCC(=Cc4ccc(F)cc4)CC3)c(-c3cnn(C)c3)nc2C1` [Compound 560, 1-(2-{4-[(p-fluorophenyl)methylene]-1-piperidyl}-3-(1-methyl-4-pyrazolyl)-5,6,7,8-tetrahydro-1,4,6-triaza-6-naphthyl)-1-ethanone], for which the IC50 against GPR6 (setting [3]) is below 0.1 µM; on GPR3 (setting [4]), 0.1 to 1 µM.

For the compound `Cn1cc(-c2nc3c(C#N)nccc3nc2N2CCC(Oc3ccc(F)cc3F)CC2)cn1` [Compound 409, 2-[4-(2,4-difluorophenoxy)piperidin-1-yl]-3-(1-methyl-1H-pyrazol-4-yl)pyrido[3,4-b]pyrazine-5-carbonitrile], the IC50 on GPR6 (setting [1]) and against GPR3 (setting [2]) was 0.1 to 1 µM each time.

On to `Cn1cc(-c2nc3cc([C@@](C)(O)C(C)(C)O)ncc3nc2N2CCN(Cc3ccc(F)cc3F)CC2)cn1` (single isomer, unassigned) [Compound 772], for which the IC50 against GPR6 (procedure of Example 24) and against GPR3 (procedure of Example 24) was 0.1 to 1 µM each time.

Regarding `Cn1cc(-c2nc3cnccc3nc2N2CCN(C(=O)c3ccc(F)cc3F)CC2)cn1` [Compound 128, (2,4-difluorophenyl)(4-(3-(1-methyl-1H-pyrazol-4-yl)pyrido[3,4-b]pyrazin-2-yl)piperazin-1-yl)methanone], the IC50 was 1 to 30 µM on GPR6 (setting [1]) and at least 30 µM against GPR3 (setting [2]).

In the case of `COCC(O)c1cc2nc(-c3cnn(C)c3)c(N3CCC(Oc4ccc(F)cc4F)CC3)nc2cn1` (centres unmarked) [Compound 644, 1-{3-[4-(2,4-difluorophenoxy)-1-piperidyl]-2-(1-methyl-4-pyrazolyl)-1,4,6-triaza-7-naphthyl}-2-methoxy-1-ethanol], the IC50 was below 0.1 µM against GPR6 (procedure of Example 24) and 0.1 to 1 µM against GPR3 (procedure of Example 24).

With `CC(=O)N1CCc2nc(N3CCC(C(=O)c4ccc(F)cc4F)CC3)c(-c3ccc(F)c(N)n3)nc2C1` [Compound 638, 1-{3-(6-amino-5-fluoro-2-pyridyl)-2-[4-(2,4-difluorobenzoyl)-1-piperidyl]-5,6,7,8-tetrahydro-1,4,6-triaza-6-naphthyl}-1-ethanone], the figures for the IC50 at GPR6 (procedure of Example 24) and against GPR3 (procedure of Example 24) were below 0.1 µM and 1 to 30 µM, respectively.

For the compound `CC(C)(O)C(O)c1cc2nc(-c3cnn(C(F)F)c3)c(N3CCC(Oc4ccc(F)cc4F)CC3)nc2cn1` (single isomer, unassigned) [Compound 584], the IC50 is below 0.1 µM at GPR6 (setting [3]) and 1 to 30 µM against GPR3 (setting [4]).

Regarding `COc1cc(-c2nc3c(nc2N2CCC(Oc4ccc(F)cc4F)CC2)CCN(C(C)=O)C3)ccn1` [Compound 20, 1-{2-[4-(2,4-difluorophenoxy)piperidin-1-yl]-3-(2-methoxypyridin-4-yl)-5H,6H,7H,8H-pyrido[3,4-b]pyrazin-6-yl}ethan-1-one], the IC50 on GPR6 (setting [5]) was in the range of 0.1 to 1 µM; against GPR3 (setting [5]), 1 to 30 µM.

Regarding `CCn1cc(-c2nc3c(nc2N2CCC(Oc4ccc(F)cc4F)CC2)CCN(C[C@@H](O)CO)C3)cn1` (single isomer, unassigned) [Compound 290], the IC50 against GPR6 (procedure of Example 24) fell in the range of 0.1 to 1 µM; against GPR3 (procedure of Example 24) it was 1 to 30 µM.

`Cn1cc(-c2nc3cc([C@](C)(O)CO)ncc3nc2N2CCC(Oc3ccc(F)cc3F)CC2)cn1` (single isomer, unassigned) [Compound 691]: the results for the IC50 at GPR6 (procedure of Example 24) and against GPR3 (procedure of Example 24) were 0.1 to 1 µM and 1 to 30 µM, respectively.

Turning to `COCn1cc(-c2nc3c(nc2N2CCC(Oc4ccc(F)cc4F)CC2)CCN(C(C)=O)C3)cn1` [Compound 14, 1-{2-[4-(2,4-difluorophenoxy)piperidin-1-yl]-3-[1-(methoxymethyl)-1H-pyrazol-4-yl]-5H,6H,7H,8H-pyrido[3,4-b]pyrazin-6-yl}ethan-1-one], the IC50 against GPR6 (setting [5]) is 0.1 to 1 µM; against GPR3 (setting [5]), 1 to 30 µM.

`Fc1ccc(OC2CCN(c3nc4ccncc4nc3-c3ncc[nH]3)CC2)c(F)c1` [Compound 41, 4-(2,4-difluorophenoxy)-1-[3-(1H-imidazol-2-yl)pyrido[3,4-b]pyrazin-2-yl]piperidine]: the IC50 at GPR6 (setting [5]) and against GPR3 (setting [5]) was 1 to 30 µM in each case.
